Assay [1] relates to Cdc7 (pS40MCM2 levels in HCT116 cells). As to the kind of experiment: Cdc7 Cell Pharmacodynamics Assay Method 2A: pS40MCM2 levels in HCT116 cells, 6 hours. It counts as cell-based. The note with it: Homo sapiens, HCT-116, read-out: Biomarker Method 2A (pEC50) (converted). An excerpt:
(§1) This protocol describes a method to investigate the inhibition of Cdc7 activity by measuring pS40MCM2 levels in cells, after treatment with compounds.
(§2) • HCT116 cells (ATCC, #CCL-247) • McCoys 5A with L-glutamine (Cellgro, #10-050-CV) • 10% FCS (Cellgro, #35-010-CV) • D-PBS without CaCl2 and MgCl2 (Cellgro, #21-031-CV) • Trypsin/EDTA (Cellgro, #25-052-CL) • BSA (Calbiochem, 126593) • Cell Extraction Buffer (Invitrogen FNN0011) • Protease inhibitor cocktail (Sigma P-2714) • PMSF 0.3M stock in DMSO (Sigma P7626) • Antibody-rabbit pMCM2 Ser40 (Abcam, AB133243) • Antibody-goat MCM2 (Bethyl #A300-122A) • Antibody-goat Anti Rabbit IgG HRP (Thermo, 31462) • SuperSignal ELISA Pico Chemiluminescent Substrate (Perbio Science UK Ltd 37069) • 10×PBS (Growcells, MRGF-6236) • Triton X100 (Sigma, P-T8787) • DMSO (Fisher, D128-1) • 2-Propanol (J. T. Baker, 9095-03) Method • Seed 1×10^6 HCT116 cells into each of two 175 cm^2 flask containing 30 mL Cell Growth Media and incubate at 37° C., 5% CO2 for 3 days. • Harvest the cells from one T175 cm^2 flask and count. • Dilute with Cell Growth Media to a cell density of 2×10^5. Dispense 100 μL to each well (20,000 HCT116 cells/well) of TC treated 96-well plate(s). • Allow cells to settle overnight in incubator set at 37° C. and 5% CO2. • Cell treatment: Transfer 0.25 μL/well from the compound plate to the wells of the cell plate(s). This is a 1:400 dilution of compound in the assay. • Once all cells are treated place the cells back to the incubator and incubate for either 6 hours (Method 2A) or 18 hours (Method 2B). • Dilute the capture antibody (total MCM2#A300-122A) 1 in 250 in the required volume of PBS (5 mL per assay plate, plus 5 mL for dead volume) and add 50 μL to each well of a Hybond plate except wells A12 & B12. Seal the plate and incubate at room temperature for a minimum of 2 hours. • Defrost aliquot of Invitrogen Cell Extraction Buffer (FNN0011) on ice and supplement with appropriate volume of both Sigma protease inhibitor cocktail (P-2714) and PMSF (final conc 1 mM from a 1 M stock in DMSO). • After the 6 hour or 18 hour cell treatment time, tap out the media from the assay plates and place them in the −70° C. freezer for at least 5 minutes. • Flick out the remaining liquid in the previously prepared capture Ab plate(s) and add 200 μL 2% BSA per well. Incubate for 1 hour at room temperature. • Remove plates from freezer and add 20 μL of ice cold complete lysis buffer. Incubate cells for 30 minutes at 4° C. • Add 30 μL per well 2% BSA • At the end of the 1 hour incubation, wash the Capture/ELISA plate(s) with Wash Buffer on the BioTek plate washer. • Transfer 40 μL per well of the lysis plate(s) to the same wells in the Capture/ELISA plate. Incubate cells overnight at 4° C. • At the end of the overnight incubation, wash the ELISA plate(s) with Wash Buffer on BioTek plate washer. • Prepare Detection Antibody Buffer and dispense 50 μL to all wells of ELISA plate(s) except wells G1 & H1. Cover plate and incubate at room temperature for 2 hours with gentle shaking. • At the end of the 2 hour incubation, wash the ELISA plate(s) with Wash Buffer on the BioTek plate washer. • Prepare the Conjugated Antibody Buffer and dispense 50 μL to all wells of ELISA plate(s). • Cover the plate and incubate at room temperature for 1 hour with gentle shaking. • At the end of the 1 hour incubation, wash the ELISA plate(s) with Wash Buffer on the BioTek plate washer. • Prepare Substrate Buffer and dispense 50 μL to all wells of ELISA plate(s). • Incubate for a minimum of 10 minutes and read plates on the EnVision 2100 Multilabel Reader (Mirror: Luminescence (404) & Luminescence 700 (212); Measurement Height: 6.5 mm; Measurement Time: 0.2 s). Method 3

For the next assay, the target named is Cdc7/Dbf4 (Homo sapiens, UniProt O00311). As to the kind of experiment: Cdc7 Biochemical Assay Method 3: Cdc7/Dbf4 Enzyme TR-FRET Assay measuring pS40MCM2. The note with it: 1 μM ATP, read-out: Biochemical Method 3 (pIC50) (converted). The gist of the method:
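2.5 nM Cdc7/Dbf4 incubated with 100 nM biotinylated MCM2-derived peptide and 1 μM ATP, 120 minutes at 25° C. Phospho-S40 detected by TR-FRET using anti-pS40 Mcm2 antibody, terbium anti-rabbit secondary and streptavidin-Alexa Fluor488.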
A general note: In TR-FRET formats the signal depends on donor and acceptor labels being close together.

In assay [2] the test system is Cdc7 (pS53MCM2 levels in SW48 cells). As to the kind of experiment: Cdc7 Cell Pharmacodynamics Assay Method 3: pS53MCM2 levels in SW48 cells, 6 hours. The assay is classed as cell-based. The settings on record: Homo sapiens, SW48, 6 h, read-out: Biomarker Method 3 (pEC50) (converted). The source says: This protocol describes a method to investigate the inhibition of Cdc7 activity by measuring pS53MCM2 levels in cells, after treatment with compounds.
• SW48 cells • RPMI 1640 (Sigma, R5886) • 10% FCS (Sera Laboratories International Ltd, EU000F Batch:108005) • 100× L-Glutamine (Invitrogen, 25030-024) • D-Glucose Solution (10%) (Sigma, G8644) • HEPES Buffer Solution (Sigma, 83264) • Sodium Pyruvate (Sigma, S8636) • PBS (Fisger, BP399-4) • Trypsin/EDTA (Invitrogen 25300-054) • 2% BSA in PBS • Cell Extraction Buffer (Invitrogen FNN0011) • Protease inhibitor cocktail (Sigma P-2714) • PMSF 0.3M stock in DMSO (Sigma P7626) • Antibody-rabbit pMCM2 Ser53 (Bethyl #A300-756A) • Antibody-goat MCM2 (Bethyl #A300-122A) • Antibody-goat Anti Rabbit IgG HRP (Perbio Science UK Ltd 31462) • SuperSignal ELISA Pico Chemiluminescent Substrate (Perbio Science UK Ltd 37070) Method • Plate 30,000 SW48 cells per well in standard TC treated 96 well plate in 100 μL complete RPMI 1640 medium. • Allow cells to settle overnight in incubator set at 37° C. and 5% CO2. • Cell treatment: prepare a 384 well plate containing 80 μl PBS/well. The PBS should be at room temperature—to be referred to as intermediate plate. Transfer 2 μL of compound from mother plate to intermediate (daughter plate) 1:40 dilution, then 5 μL intermediate to cell (daughter) plate. • Once all cells are treated place the cells back to the incubator and incubate for 6 hours. • Dilute the capture antibody (total MCM2#A300-122A) 1 in 250 in the required volume of PBS (5 mL per assay plate, plus 5 mL for dead volume) and add 50 μL to each well of a Hybond plate. Seal the plate and incubate at room temperature for a minimum of 2 hours. • Defrost aliquot of Invitrogen Cell Extraction Buffer (FNN0011) on ice and supplement with appropriate volume of both Sigma protease inhibitor cocktail (P-2714) and PMSF (final conc 1 mM from a 1 M stock in DMSO). • After the 6 hour cell treatment time, tap out the media from the assay plates and place them in the −80° C. freezer for at least 5 minutes. • Remove plates from freezer and add 20 μL of ice cold complete lysis buffer, with the multidrop. Incubate cells for 30 minutes at 4° C. • Add 80 μL per well 2% BSA. • Flick out the remaining liquid from the capture plate and transfer 80 μL from the lysis plate to the same wells in the capture/ELISA plate, using the Biomek. Cover with plate seal and incubate plates overnight at 4° C. • Wash plates with PBS, remove any residual remaining liquid and add 50 μL per well of pMCM2 Ser53 antibody (#A300-756A) diluted 1 in 100 in 2% BSA. Cover plate and incubate at room temperature for 2 hours with gentle shaking. • Wash plates with PBS, remove any residual remaining liquid and Incubate with 50 μL goat anti rabbit antibody (1 in 800 dilution in 2% BSA), for 1 hour at room temperature. • Wash plates with PBS, remove any residual remaining liquid and add 50 μL mixed SuperSignal Pico substrate. • Incubate each plate for 5 minutes at room temperature shielding the plates from direct light (with a cover plate). Read plates with the luminescent detection.

In assay [3] the test system is Cdc7 (pS40MCM2 levels in HCT116 cells). In words: Cdc7 Cell Pharmacodynamics Assay Method 2B: pS40MCM2 levels in HCT116 cells, 18 hours. It counts as cell-based. The settings on record: Homo sapiens, HCT-116, read-out: Biomarker Method 2B (pEC50) (converted).
Description: as §1, §2

Molecules are shown by their SMILES.

Sequence of Cdc7/Dbf4 (O00311 whole entry): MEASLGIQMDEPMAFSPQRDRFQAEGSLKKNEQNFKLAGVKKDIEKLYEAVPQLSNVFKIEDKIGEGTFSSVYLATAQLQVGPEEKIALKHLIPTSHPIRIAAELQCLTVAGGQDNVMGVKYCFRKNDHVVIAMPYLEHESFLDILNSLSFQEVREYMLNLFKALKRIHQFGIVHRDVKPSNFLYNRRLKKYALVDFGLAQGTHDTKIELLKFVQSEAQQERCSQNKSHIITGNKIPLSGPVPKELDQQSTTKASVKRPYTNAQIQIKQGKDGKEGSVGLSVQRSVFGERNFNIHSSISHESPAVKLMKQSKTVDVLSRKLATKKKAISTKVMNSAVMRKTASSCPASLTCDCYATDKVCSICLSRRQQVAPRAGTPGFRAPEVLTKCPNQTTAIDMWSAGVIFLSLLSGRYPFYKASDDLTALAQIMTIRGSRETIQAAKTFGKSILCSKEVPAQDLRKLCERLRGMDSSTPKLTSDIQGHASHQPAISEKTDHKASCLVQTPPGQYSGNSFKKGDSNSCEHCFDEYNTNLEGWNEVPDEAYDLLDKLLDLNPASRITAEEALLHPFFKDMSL
Sequence of Cdc7/Dbf4 (Q9UBU7 whole entry partner): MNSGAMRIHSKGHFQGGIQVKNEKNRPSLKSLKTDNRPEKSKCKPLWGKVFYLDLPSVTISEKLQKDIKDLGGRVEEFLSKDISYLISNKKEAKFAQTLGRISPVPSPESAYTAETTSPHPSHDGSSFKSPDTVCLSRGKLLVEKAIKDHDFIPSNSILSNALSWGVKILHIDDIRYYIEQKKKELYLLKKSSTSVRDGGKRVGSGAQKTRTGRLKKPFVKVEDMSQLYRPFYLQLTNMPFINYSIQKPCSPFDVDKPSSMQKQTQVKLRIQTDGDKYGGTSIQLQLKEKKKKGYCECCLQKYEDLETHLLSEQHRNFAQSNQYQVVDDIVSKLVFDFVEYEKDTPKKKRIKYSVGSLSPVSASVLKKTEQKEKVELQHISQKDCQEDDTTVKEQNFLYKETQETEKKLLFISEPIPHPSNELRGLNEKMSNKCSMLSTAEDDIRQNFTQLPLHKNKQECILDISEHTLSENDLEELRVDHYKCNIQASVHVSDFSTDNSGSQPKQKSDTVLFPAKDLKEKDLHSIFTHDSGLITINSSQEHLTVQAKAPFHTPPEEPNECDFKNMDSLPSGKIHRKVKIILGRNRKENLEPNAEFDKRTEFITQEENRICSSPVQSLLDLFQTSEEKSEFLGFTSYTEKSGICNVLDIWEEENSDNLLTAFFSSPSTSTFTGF

In the case of `NC1CN(c2nc(-c3ccnc(F)c3)[nH]c(=O)c2Cl)CCC1F` (mixture of isomers) [Compound 252], the EC50 in assay [1] is 38 nM. Besides, the IC50 at Cdc7/Dbf4 is 0.617 nM.

On to `O=c1[nH]c(-c2ccnc(F)c2)nc(N2CCCNCC2)c1Cl` [Compound 206], for which the values for the EC50 in assay [2] and in assay [3] were 562 nM and 39.8 nM, respectively. Moreover, the IC50 on Cdc7/Dbf4 is 0.0977 nM.

As for `C[C@@H]1COCCN1c1nc(-c2ccnc(F)c2)[nH]c(=O)c1Cl` [Compound 328], the EC50 in assay [1] is 3.89 nM. Moreover, the IC50 at Cdc7/Dbf4 is 0.575 nM.

Take `O=c1[nH]c(-c2ccnc(F)c2)nc(N2C3CCC2CNC3)c1Cl` [Compound 262]: the EC50 is 347 nM in assay [2] and 19.5 nM in assay [3]. For the same compound, on Cdc7/Dbf4, the IC50 was 0.851 nM.

Turning to `CC1(C)COCCN1c1nc(-c2ccnc(F)c2)[nH]c(=O)c1Cl` [Compound 339], the EC50 in assay [2] was 110 nM; in assay [3] it was 10.7 nM. On Cdc7/Dbf4, the IC50 is 0.479 nM.

Turning to `CC1(C)CNCCN1c1nc(-c2ccnc(F)c2)[nH]c(=O)c1Cl` [Compound 358], the EC50 in assay [2] is 89.1 nM; in assay [3], 2.45 nM. Besides, the IC50 at Cdc7/Dbf4 was 1.15 nM.

With `O=c1[nH]c(-c2ccnc(F)c2)nc(N2CCNC(C(F)(F)F)CC2)c1Cl` (centres unmarked) [Compound 296], at Cdc7/Dbf4, the IC50 is 7.59 nM. Also, the EC50 in assay [3] is 1020 nM.

For the compound `CC1CCN(c2nc(-c3ccnc(F)c3)[nH]c(=O)c2Cl)CCN1` (centres unmarked) [Compound 303], the IC50 at Cdc7/Dbf4 is 2.09 nM. Further, the EC50 in assay [3] was 126 nM.

Take `O=c1[nH]c(-c2ccnc(F)c2)nc(N2CCOCC(F)(F)C2)c1Cl` [Compound 286]: the EC50 in assay [2] is 513 nM; in assay [3] it was 15.5 nM. For the same compound, at Cdc7/Dbf4, the IC50 is 0.229 nM.

For the compound `O=c1[nH]c(-c2ccnc(F)c2)nc(N2CCN3CC(F)(F)C[C@H]3C2)c1Cl` [Compound 347], at Cdc7/Dbf4, the IC50 is 3.63 nM. The EC50 in assay [3] is 316 nM.

As to `CC1(C)CN(c2nc(-c3ccnc(F)c3)[nH]c(=O)c2Cl)CCCO1` [Compound 301], at Cdc7/Dbf4, the IC50 was 10.5 nM. The EC50 in assay [3] is 1910 nM.

On to `C[C@@H]1CCCN1c1nc(-c2ccnc(F)c2)[nH]c(=O)c1Cl` [Compound 279], for which the EC50 in assay [2] was 1320 nM; in assay [3], 57.5 nM. Also, at Cdc7/Dbf4, the IC50 was 0.724 nM.

Regarding `CO[C@@H]1CCCN(c2nc(-c3ccnc(F)c3)[nH]c(=O)c2Cl)C1` [Compound 282], the IC50 on Cdc7/Dbf4 was 2.63 nM. The EC50 in assay [3] is 234 nM.

`C[C@@H]1CCCCN1c1nc(-c2ccnc(F)c2)[nH]c(=O)c1Cl` [Compound 281]: the IC50 at Cdc7/Dbf4 was 1.05 nM. Moreover, the EC50 in assay [3] was 457 nM.

With `O=c1[nH]c(-c2ccnc(F)c2)nc(N2CCCC3(CCNC3)C2)c1Cl` (centres unmarked) [Compound 258], the IC50 on Cdc7/Dbf4 was 0.832 nM. Also, the EC50 in assay [3] is 562 nM.

As to `C[C@@H]1CN(c2nc(-c3ccnc(F)c3)[nH]c(=O)c2Cl)C[C@H](C)O1` [Compound 201], on Cdc7/Dbf4, the IC50 is 4.17 nM. In addition, the EC50 in assay [3] was 813 nM.

In the case of `N#CC[C@H]1CN(c2nc(-c3ccnc(F)c3)[nH]c(=O)c2Cl)CCN1` [Compound 306], the IC50 at Cdc7/Dbf4 is 1.29 nM. Further, the EC50 in assay [3] was 174 nM.

As for `O=c1[nH]c(-c2ccnc(F)c2)nc(N2CCC(N3CCOCC3)CC2)c1Cl` [Compound 244], the IC50 at Cdc7/Dbf4 is 4.37 nM. Besides, the EC50 in assay [3] was 398 nM.

As to `O=c1[nH]c(-c2ccnc(F)c2)nc(N2CCN3CCC2CC3)c1Cl` [Compound 293], the IC50 at Cdc7/Dbf4 was 0.363 nM. In addition, the EC50 in assay [3] was 29.5 nM.

Regarding `CC1OCCN(c2nc(-c3ccnc(F)c3)[nH]c(=O)c2Cl)C1C` (centres unmarked) [Compound 359], the IC50 at Cdc7/Dbf4 is 2 nM. Further, in assay [3], the EC50 was 27.5 nM.

As to `C[C@@H]1CNCCCN1c1nc(-c2ccnc(F)c2)[nH]c(=O)c1Cl` [Compound 352], the IC50 on Cdc7/Dbf4 was 3.63 nM. Besides, the EC50 in assay [3] is 437 nM.

In the case of `O=C1COCCN(c2nc(-c3ccnc(F)c3)[nH]c(=O)c2Cl)C1` [Compound 208], at Cdc7/Dbf4, the IC50 is 0.49 nM. The EC50 in assay [3] is 64.6 nM.

For `C[C@H]1CN[C@@H](C(F)(F)F)CN1c1nc(-c2ccnc(F)c2)[nH]c(=O)c1Cl` (racemic) [Compound 378, Cis-5-chloro-2-(2-fluoro-4-pyridyl)-4-[2-methyl-5-(trifluoromethyl)piperazin-1-yl]-1H-pyrimidin-6-one], the results for the EC50 in assay [2] and in assay [3] were 2090 nM and 437 nM, respectively. Further, the IC50 on Cdc7/Dbf4 was 5.89 nM.

These data come from patent publication US10919896B2, “Preparation and uses of pyrimidinone derivatives” (Cancer Research Technology Limited, priority 2016, dated 2021).
